The values that follow come from ChEMBL document CHEMBL2146406, “DNA-binding study of anthraquinone derivatives using chemometrics methods” (Eur J Med Chem, 2011).

Holding throughout (assay type): nucleic-acid assay
Common to all, as to details: Bos taurus

Assay [1] has as its system Nucleic Acid. Kind of assay: Binding affinity to calf thymus DNA in Brittone-Robinson buffer at 50 uM at pH 7 in presence of NaCl by UV-vis spectroscopy.
Assay [2] concerns Nucleic Acid. Kind of assay: Binding affinity to calf thymus DNA in Brittone-Robinson buffer at 50 uM at pH 7 by UV-vis spectroscopy.
The test system of assay [3] is Nucleic Acid. Kind of assay: Binding affinity to calf thymus DNA in Brittone-Robinson buffer at 50 uM at pH 3 by UV-vis spectroscopy.
Assay [4] deals with Nucleic Acid. Kind of assay: Binding affinity to calf thymus DNA in Brittone-Robinson buffer at 50 uM by UV-vis spectroscopy in presence of native DNA.
Assay [5] has as its system Nucleic Acid. Kind of assay: Binding affinity to calf thymus DNA in Brittone-Robinson buffer at 50 uM by UV-vis spectroscopy in presence of denatured DNA.
The test system of assay [6] is Nucleic Acid. Kind of assay: Binding affinity to calf thymus DNA at 50 uM by circular dichroism spectra.
In assay [7] the test system is Nucleic Acid. Kind of assay: Binding affinity to calf thymus DNA at DNA/compound ratio 0.1 to 2 at pH 7 by measuring DNA viscosity.
Assay [8] relates to Nucleic Acid. Briefly: Binding affinity to calf thymus DNA assessed as hydrogen bonding.
The test system of assay [9] is Nucleic Acid. Kind of assay: Binding affinity to calf thymus DNA assessed as partial intercalation.
In assay [10] the test system is Nucleic Acid. Kind of assay: Ratio of danthron Kb to quinizarin Kb for calf thymus DNA.

Calls of active or inactive are those of the source. The calls are words filed in the database; no cut-off is given here.

For `O=C1c2cccc(O)c2C(=O)c2c(O)cccc21`, the outcome in [1], in assay [2], in [4], in [5], in assay [6] and in assay [7] was Active. In [3], the outcome was inactive. Moreover, the Kb in assay [8] worked out at 3.6 ×10⁴ /M; in [9], 7.2 ×10⁶ /M.

`O=C1c2ccccc2C(=O)c2c(O)ccc(O)c21`: the outcome in assay [1], in [2], in [4], in assay [5], in assay [6] and in assay [7] was Active. Besides, in [3], the result was inactive. Moreover, the Kb came to 1.66 ×10⁴ /M in assay [8] and 3.2 ×10⁷ /M in assay [9]. In addition, the Ratio in [10] is 5.
